Laboratory results published in patent US20070208026A1, “N-Containing Heteroaromatic Compounds As Modulators Of Ppars And Methods Of Treating Metabolic Disorders” (priority 2003, published 2007).

What was measured:
Assay in all cases: cell-based human PPAR-GAL4 chimera luciferase reporter assay in CV-1 cells
[1] = target: T1, hPPAR δ (Homo sapiens, UniProt Q03181); settings: PPAR LBD-GAL4 chimera, 24 hours treatment
T1 construct: expressed in transfected cells; host or cells: CV-1 cells
T1 sequence (Q03181 211-439 limits assumed): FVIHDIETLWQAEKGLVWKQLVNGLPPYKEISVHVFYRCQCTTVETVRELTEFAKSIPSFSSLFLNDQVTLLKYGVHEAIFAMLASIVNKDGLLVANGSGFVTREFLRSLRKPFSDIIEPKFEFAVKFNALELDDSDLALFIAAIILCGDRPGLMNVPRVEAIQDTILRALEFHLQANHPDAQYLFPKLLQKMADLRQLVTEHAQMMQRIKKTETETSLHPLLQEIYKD
Protocol: (§1) The compounds were evaluated in a cell-based assay to determine their human PPAR activity (See Tables 2 and 3). The plasmids for human PPAR-GAL4 chimeras were prepared by fusing amplified cDNAs encoding the LBDs of PPARs to the C-terminal end of the yeast GAL4 DNA binding domain. CV-1 cells were grown and transiently tranfected with PerFectin (GTS, San Diego, Calif.) according to the manufacturer's protocol along with a luciferase reporter. Eight hours after transfection, 50 μl of cells were replated into 384 well plates ([…]). Sixteen hours after replating, cells were treated with either compounds or 1% DMSO for 24 hours. Luciferase activity was then assayed with Britelite (Perkin Elmer) following the manufacturer's protocol and measured with either the Perkin Elmer Viewlux or Molecular Devices Acquest.

[2] = target: T2, hPPAR α (Homo sapiens, UniProt Q07869); settings: PPAR LBD-GAL4 chimera, 24 hours treatment; for EC50: read-out: hPPAP α (EC50)
T2 construct: expressed in transfected cells; host or cells: CV-1 cells
T2 sequence (Q07869 239-466 limits assumed): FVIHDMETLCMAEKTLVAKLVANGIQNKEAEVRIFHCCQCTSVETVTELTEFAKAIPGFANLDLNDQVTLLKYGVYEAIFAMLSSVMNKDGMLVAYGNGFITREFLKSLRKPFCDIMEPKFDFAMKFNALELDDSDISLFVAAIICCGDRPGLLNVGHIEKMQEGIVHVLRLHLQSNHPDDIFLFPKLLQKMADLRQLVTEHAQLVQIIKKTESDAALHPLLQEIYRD
Protocol: as §1

[3] = target: T3, hPPAR γ (Homo sapiens, UniProt P37231); settings: PPAR LBD-GAL4 chimera, 24 hours treatment
T3 construct: expressed in transfected cells; host or cells: CV-1 cells
T3 sequence (P37231 238-503 limits assumed): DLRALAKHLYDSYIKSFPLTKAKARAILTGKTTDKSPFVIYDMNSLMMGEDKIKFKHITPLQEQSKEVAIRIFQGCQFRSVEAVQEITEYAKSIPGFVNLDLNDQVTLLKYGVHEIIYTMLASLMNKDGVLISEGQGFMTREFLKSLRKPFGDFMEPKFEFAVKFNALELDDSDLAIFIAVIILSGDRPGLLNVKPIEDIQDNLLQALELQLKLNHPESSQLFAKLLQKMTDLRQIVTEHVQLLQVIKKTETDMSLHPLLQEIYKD
Protocol: as §1

## CCc1cnc(N(CCCOc2cccc(C(=O)O)n2)Cc2ccc(C(F)(F)F)cc2C(F)(F)F)nc1
[1]
  EC50: > 100 µM
[2]
  hPPAP α (EC50): A/B
[3]
  EC50: < 1 µM

## CCCCN(CCCOc1cncc(C(=O)O)c1)c1ncc(CC)cn1
[1]
  EC50: > 100 µM
[2]
  EC50: > 100 µM
[3]
  EC50: < 1 µM

## O=C(O)c1cncc(OCCCN(Cc2ccc(C(F)(F)F)cc2C(F)(F)F)c2nc3ccccc3o2)c1
[1]
  EC50: > 100 µM
[2]
  EC50: > 100 µM
[3]
  EC50: 1 to 100 µM

## CCc1cnc(N(CCCOc2ccc3c(c2)c(CC(=O)O)cn3C)Cc2ccc(C(F)(F)F)cc2C(F)(F)F)nc1
[1]
  hPPAR δ (EC50): B/C
[2]
  EC50: 1 to 100 µM
[3]
  EC50: < 1 µM

## CCCCN(CCCOc1ccc2[nH]cc(CC(=O)O)c2c1)c1nc2ccccc2o1
[1]
  EC50: 1 to 100 µM
[2]
  EC50: > 100 µM
[3]
  EC50: 1 to 100 µM

## CCCCN(CCCOc1ccc2[nH]cc(CC(=O)O)c2c1)c1ccccn1
[1]
  EC50: > 100 µM
[2]
  EC50: > 100 µM
[3]
  EC50: 1 to 100 µM

## O=C(O)Cc1c[nH]c2ccc(OCCCN(Cc3ccc(C(F)(F)F)cc3C(F)(F)F)c3ccccn3)cc12
[1]
  EC50: 1 to 100 µM
[2]
  EC50: > 100 µM
[3]
  EC50: < 1 µM

## O=C(O)Cc1c[nH]c2ccc(OCCCN(Cc3ccc(C(F)(F)F)cc3C(F)(F)F)c3nc4ccccc4s3)cc12
[1]
  EC50: > 100 µM
[2]
  EC50: > 100 µM
[3]
  EC50: < 1 µM

## O=C(O)c1cccc(OCCCN(Cc2ccc(C(F)(F)F)cc2C(F)(F)F)c2ccccn2)n1
[1]
  EC50: > 100 µM
[2]
  EC50: 1 to 100 µM
[3]
  EC50: < 1 µM

## CCCCN(CCCOc1nc2ccccc2nc1C(=O)O)c1nc2ccccc2s1
[1]
  EC50: > 100 µM
[2]
  EC50: > 100 µM
[3]
  EC50: 1 to 100 µM

## CCc1cnc(N(CCCOc2cccc3ccc(C(=O)O)nc23)Cc2ccc(C(F)(F)F)cc2C(F)(F)F)nc1
[1]
  EC50: > 100 µM
[2]
  EC50: > 100 µM
[3]
  EC50: 1 to 100 µM

## CCc1cnc(N(CCCOc2ncc(C(=O)O)cc2Cl)Cc2ccc(C(F)(F)F)cc2C(F)(F)F)nc1
[1]
  EC50: > 100 µM
[2]
  EC50: > 100 µM
[3]
  EC50: < 1 µM

## CCCCN(CCCOc1nc2ccccc2nc1C(=O)O)c1ccccn1
[1]
  EC50: > 100 µM
[2]
  EC50: > 100 µM
[3]
  EC50: 1 to 100 µM

## CCCCN(CCCOc1cccc(C(=O)O)n1)c1ccccn1
[1]
  EC50: > 100 µM
[2]
  EC50: > 100 µM
[3]
  EC50: 1 to 100 µM

## O=C(O)c1nc2ccccc2nc1OCCCN(Cc1ccc(C(F)(F)F)cc1C(F)(F)F)c1nc2ccccc2s1
[1]
  EC50: > 100 µM
[2]
  EC50: > 100 µM
[3]
  EC50: < 1 µM

## O=C(O)c1cncc(OCCCN(Cc2ccc(C(F)(F)F)cc2C(F)(F)F)c2ccccn2)c1
[1]
  EC50: 1 to 100 µM
[2]
  EC50: 1 to 100 µM
[3]
  EC50: < 1 µM

## CCCCN(CCCOc1nc2ccccc2nc1C(=O)O)c1nc2ccccc2o1
[1]
  EC50: > 100 µM
[2]
  EC50: > 100 µM
[3]
  EC50: 1 to 100 µM

## CCCCN(CCCOc1cccc(C(=O)O)n1)c1nc2ccccc2o1
[1]
  EC50: > 100 µM
[2]
  EC50: 1 to 100 µM
[3]
  EC50: < 1 µM

## CCc1cnc(N(CCCOc2nc3ccccc3nc2C(=O)O)Cc2ccc(C(F)(F)F)cc2C(F)(F)F)nc1
[1]
  EC50: > 100 µM
[2]
  EC50: > 100 µM
[3]
  EC50: < 1 µM

## O=C(O)c1cncc(OCCCN(Cc2ccc(C(F)(F)F)cc2C(F)(F)F)c2nc3ccccc3s2)c1
[1]
  EC50: > 100 µM
[2]
  EC50: > 100 µM
[3]
  EC50: 1 to 100 µM

## O=C(O)Cc1c[nH]c2ccc(OCCCN(Cc3ccc(C(F)(F)F)cc3C(F)(F)F)c3nc4ccccc4o3)cc12
[1]
  EC50: < 1 µM
[2]
  EC50: > 100 µM
[3]
  EC50: < 1 µM

## CCCCN(CCCOc1cccc(C(=O)O)n1)c1ncc(CC)cn1
[1]
  EC50: 1 to 100 µM
[2]
  EC50: 1 to 100 µM
[3]
  EC50: < 1 µM

## CCCCN(CCCOc1ccc2[nH]cc(CC(=O)O)c2c1)c1nc2ccccc2s1
[1]
  EC50: 1 to 100 µM
[2]
  EC50: > 100 µM
[3]
  EC50: 1 to 100 µM

## CCc1cnc(N(CCCOc2cncc(C(=O)O)c2)Cc2ccc(C(F)(F)F)cc2C(F)(F)F)nc1
[1]
  EC50: 1 to 100 µM
[2]
  hPPAP α (EC50): B/C
[3]
  EC50: < 1 µM

## CCCCN(CCCOc1cncc(C(=O)O)c1)c1nc2ccccc2s1
[1]
  EC50: > 100 µM
[2]
  EC50: > 100 µM
[3]
  EC50: < 1 µM

## CCCCN(CCCOc1cccc(C(=O)O)n1)c1nc2ccccc2s1
[1]
  EC50: > 100 µM
[2]
  EC50: > 100 µM
[3]
  EC50: 1 to 100 µM

## O=C(O)c1cncc(OCCCN(Cc2ccc(C(F)(F)F)cc2)c2nc3ccccc3s2)c1
[1]
  EC50: > 100 µM
[2]
  EC50: 1 to 100 µM
[3]
  EC50: < 1 µM

## O=C(O)c1cccc(OCCCN(Cc2ccc(C(F)(F)F)cc2C(F)(F)F)c2nc3ccccc3o2)n1
[1]
  EC50: > 100 µM
[2]
  EC50: < 1 µM
[3]
  EC50: > 100 µM

## CCCCN(CCCOc1nc2ccccc2nc1C(=O)O)c1ncc(CC)cn1
[1]
  EC50: 1 to 100 µM
[2]
  EC50: > 100 µM
[3]
  EC50: 1 to 100 µM

## O=C(O)c1cccc(OCCCN(Cc2ccc(C(F)(F)F)cc2C(F)(F)F)c2nc3ccccc3s2)n1
[1]
  EC50: > 100 µM
[2]
  EC50: < 1 µM
[3]
  EC50: < 1 µM

## CCCCN(CCCOc1ccc2[nH]cc(CC(=O)O)c2c1)c1ncc(CC)cn1
[1]
  EC50: > 100 µM
[2]
  EC50: > 100 µM
[3]
  EC50: 1 to 100 µM

## O=C(O)c1nc2ccccc2nc1OCCCN(Cc1ccc(C(F)(F)F)cc1)c1nc2ccccc2s1
[1]
  EC50: > 100 µM
[2]
  EC50: > 100 µM
[3]
  EC50: > 100 µM

## CCCCN(CCCOc1cncc(C(=O)O)c1)c1nc2ccccc2o1
[1]
  EC50: > 100 µM
[2]
  EC50: > 100 µM
[3]
  EC50: 1 to 100 µM

## CCCCN(CCCOc1cncc(C(=O)O)c1)c1ccccn1
[1]
  EC50: > 100 µM
[2]
  EC50: > 100 µM
[3]
  EC50: 1 to 100 µM

## O=C(O)c1cccc(OCCCN(Cc2ccc(C(F)(F)F)cc2)c2nc3ccccc3s2)n1
[1]
  EC50: > 100 µM
[2]
  EC50: > 100 µM
[3]
  EC50: < 1 µM

## O=C(O)c1nc2ccccc2nc1OCCCN(Cc1ccc(C(F)(F)F)cc1C(F)(F)F)c1nc2ccccc2o1
[1]
  EC50: > 100 µM
[2]
  EC50: > 100 µM
[3]
  EC50: < 1 µM

## O=C(O)c1nc2ccccc2nc1OCCCN(Cc1ccc(C(F)(F)F)cc1C(F)(F)F)c1ccccn1
[1]
  EC50: > 100 µM
[2]
  EC50: > 100 µM
[3]
  EC50: < 1 µM

## CCc1cnc(N(CCCOc2ccc3[nH]cc(CC(=O)O)c3c2)Cc2ccc(C(F)(F)F)cc2C(F)(F)F)nc1
[1]
  EC50: 1 to 100 µM
[2]
  EC50: > 100 µM
[3]
  EC50: < 1 µM
